Laboratory results from ChEMBL document CHEMBL5042504 (J Med Chem, 2022).
Blank lines part the entries; values can stand above or below the compound they belong to. The source made the active and inactive calls. The rule behind the calls is not given here.

Legend:
Histone deacetylase 1 = Histone deacetylase 1 (Homo sapiens, UniProt Q13547); assay: Inhibition of human recombinant HDAC1 using Boc-Lys(acetyl)-AMC substrate incubated for 2 hrs by fluorescence based assay
Histone deacetylase 3 [1] = target: T1, Histone deacetylase 3 (Homo sapiens, UniProt O15379); assay: Inhibition of human recombinant HDAC3 using Boc-Lys(acetyl)-AMC substrate incubated for 2 hrs by fluorescence based assay
Histone deacetylase 2 = Histone deacetylase 2 (Homo sapiens, UniProt Q92769); assay: Inhibition of human recombinant HDAC2 using Boc-Lys(acetyl)-AMC substrate incubated for 2 hrs by fluorescence based assay
[2] = Cmax in CD-1 mouse at 20 mg/kg, po measured upto 24 hrs; format: ADME, organism-based; design: route oral, dose 20 mg/kg, time <=24; settings: CD-1, mouse, in vivo, read-out: Cmax
[3] = Half life in CD-1 mouse at 5 mg/kg, iv measured upto 24 hrs; format: ADME, organism-based; settings: in vivo
[4] = Half life in CD-1 mouse at 20 mg/kg, po measured upto 24 hrs; format: ADME, organism-based; settings: in vivo
[5] = Oral bioavailability in CD-1 mouse at 20 mg/kg measured upto 24 hrs; format: ADME, organism-based; settings: in vivo
Histone deacetylase 5 = Histone deacetylase 5 (Homo sapiens, UniProt Q9UQL6); assay: Inhibition of human recombinant HDAC5 using Boc-Lys(triflouroacetyI)-AMC substrate incubated for 2 hrs by fluorescence based assay
Histone deacetylase 7 = target: T2, Histone deacetylase 7 (Homo sapiens, UniProt Q8WUI4); assay: Inhibition of human recombinant HDAC7 using Boc-Lys(triflouroacetyI)-AMC substrate incubated for 2 hrs by fluorescence based assay
T2 sequence (Q8WUI4 whole entry): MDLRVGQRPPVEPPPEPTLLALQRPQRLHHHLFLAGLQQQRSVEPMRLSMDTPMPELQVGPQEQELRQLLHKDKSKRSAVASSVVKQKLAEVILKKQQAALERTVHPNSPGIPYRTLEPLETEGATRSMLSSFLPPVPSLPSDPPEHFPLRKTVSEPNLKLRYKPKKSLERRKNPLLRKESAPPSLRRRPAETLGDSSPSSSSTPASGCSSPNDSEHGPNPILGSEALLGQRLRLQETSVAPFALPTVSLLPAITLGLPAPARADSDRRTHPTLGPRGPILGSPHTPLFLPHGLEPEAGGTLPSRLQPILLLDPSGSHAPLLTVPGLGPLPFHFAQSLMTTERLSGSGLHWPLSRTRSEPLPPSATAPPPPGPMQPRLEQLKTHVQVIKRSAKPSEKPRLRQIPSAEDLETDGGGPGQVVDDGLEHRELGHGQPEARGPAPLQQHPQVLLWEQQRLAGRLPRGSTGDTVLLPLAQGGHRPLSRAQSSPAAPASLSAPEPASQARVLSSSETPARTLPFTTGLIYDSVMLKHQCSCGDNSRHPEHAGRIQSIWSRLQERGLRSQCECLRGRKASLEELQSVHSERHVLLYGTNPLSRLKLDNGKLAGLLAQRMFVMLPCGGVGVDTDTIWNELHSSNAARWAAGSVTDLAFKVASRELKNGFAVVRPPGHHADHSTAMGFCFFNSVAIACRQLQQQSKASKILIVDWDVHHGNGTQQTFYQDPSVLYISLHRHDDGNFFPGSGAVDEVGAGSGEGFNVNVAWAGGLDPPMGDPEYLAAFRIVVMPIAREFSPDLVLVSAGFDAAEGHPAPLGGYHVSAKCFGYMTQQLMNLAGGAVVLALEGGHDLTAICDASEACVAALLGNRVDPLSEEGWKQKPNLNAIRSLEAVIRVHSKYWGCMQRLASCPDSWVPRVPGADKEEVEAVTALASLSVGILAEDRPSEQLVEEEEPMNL

Histone deacetylase 11 = target: T3, Histone deacetylase 11 (Homo sapiens, UniProt Q96DB2); assay: Inhibition of human recombinant HDAC11 using Boc-Lys(triflouroacetyI)-AMC substrate incubated for 2 hrs by fluorescence based assay
T3 sequence (Q96DB2 whole entry): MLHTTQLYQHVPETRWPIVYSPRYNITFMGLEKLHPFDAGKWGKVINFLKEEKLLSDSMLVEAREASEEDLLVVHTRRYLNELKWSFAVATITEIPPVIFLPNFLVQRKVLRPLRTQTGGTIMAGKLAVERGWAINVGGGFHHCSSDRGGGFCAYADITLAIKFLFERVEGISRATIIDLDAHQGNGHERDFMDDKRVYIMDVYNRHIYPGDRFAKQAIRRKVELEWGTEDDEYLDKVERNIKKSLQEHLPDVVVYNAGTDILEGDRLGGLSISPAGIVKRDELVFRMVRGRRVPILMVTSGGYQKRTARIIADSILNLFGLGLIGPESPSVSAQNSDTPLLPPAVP

MV4-11 [6] = assay: Induction of apoptosis in human wt-p53 MV4-11 cells assessed as apoptotic cells at 200 nM measured after 24 hrs by FITC Annexin V/propidium iodide staining based flow cytometry (reference value: 9.14%); format: functional
MV4-11 [7] = assay: Induction of apoptosis in human wt-p53 MV4-11 cells assessed as apoptotic cells at 500 nM measured after 24 hrs by FITC Annexin V/propidium iodide staining based flow cytometry (reference value: 9.14%); format: functional
MV4-11 [8] = assay: Cell cycle arrest in human […] MV4-11 cells assessed as accumulation at G2/M-phase at 500 nM measured after 24 hrs realtive to control; format: functional, cell-based
HL-60 = assay: Cell cycle arrest in human […] HL60 cells assessed as accumulation at G2/M-phase at 200 nM measured after 24 hrs realtive to control; format: functional, cell-based
[9] = Antitumor activity against human MV4-11 cells xenografted in BALB/c mouse assessed as tumor growth inhibition at 2 to 4 mg/kg, po administered for 24 days; format: functional; settings: dose 2-4 mg/kg, time 24 day
MV4-11 [10] = assay: Antitumor activity against human MV4-11 cells xenografted in BALB/c mouse assessed as inhibition of tumor growth at single administration for 4 mg/kg, po incubated for 0.5 to 8 hrs; format: functional, organism-based; settings: time 0.5-8 hrs
[11] = Plasma concentration in BALB/c mouse xenografted with human AML MV4-11 cells at 4 mg/kg, po; format: ADME, organism-based; settings: in vivo
Histone deacetylase 3 [12] = target: T1, Histone deacetylase 3; assay: Non competitive type inhibition of human HDAC3 (unknown origin) by Lineweaver-Burk plot analysis
[13] = Drug distribution in BALB/c mouse heart measured at 4 mg/kg, po or ip after 0.5 hrs after 0.5 hrs; format: ADME, organism-based; settings: in vivo
[14] = Drug distribution in BALB/c mouse brain measured at 4 mg/kg, po or ip after 0.5 hrs after 0.5 hrs; format: ADME, organism-based; settings: in vivo
[15] = Drug distribution in BALB/c mouse spleen measured at 4 mg/kg, po or ip after 2 to 8 hrs after 0.5 hrs; format: ADME, organism-based; settings: in vivo, time 2-8 hrs
[16] = Drug distribution in BALB/c mouse liver measured at 4 mg/kg, po or ip after 2 to 8 hrs after 0.5 hrs; format: ADME, organism-based; settings: in vivo, time 2-8 hrs
[17] = Drug distribution in BALB/c mouse heart measured at 4 mg/kg, po or ip after 2 to 8 hrs after 0.5 hrs; format: ADME, organism-based; settings: in vivo, time 2-8 hrs
[18] = Toxicity in BALB/c mouse assessed as induction of pathological changes in liver by H and E staining based analysis; format: tissue-based; settings: in vivo
[19] = Toxicity in BALB/c mouse assessed as induction of pathological changes in spleen by H and E staining based analysis; format: tissue-based; settings: in vivo

T1 sequence (O15379 whole entry): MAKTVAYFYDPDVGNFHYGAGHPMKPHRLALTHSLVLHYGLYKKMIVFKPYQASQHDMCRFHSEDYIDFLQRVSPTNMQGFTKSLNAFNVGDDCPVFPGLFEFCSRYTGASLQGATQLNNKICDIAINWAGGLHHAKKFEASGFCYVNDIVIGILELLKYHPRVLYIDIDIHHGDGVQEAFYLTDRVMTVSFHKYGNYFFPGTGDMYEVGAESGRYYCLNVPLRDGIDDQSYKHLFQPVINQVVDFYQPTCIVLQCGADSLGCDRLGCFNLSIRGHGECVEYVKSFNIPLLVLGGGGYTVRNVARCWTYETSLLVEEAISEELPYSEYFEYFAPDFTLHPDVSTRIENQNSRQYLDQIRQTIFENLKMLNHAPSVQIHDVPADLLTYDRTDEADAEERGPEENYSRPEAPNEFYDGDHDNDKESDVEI
Histone deacetylase 5, sequence (Q9UQL6 whole entry): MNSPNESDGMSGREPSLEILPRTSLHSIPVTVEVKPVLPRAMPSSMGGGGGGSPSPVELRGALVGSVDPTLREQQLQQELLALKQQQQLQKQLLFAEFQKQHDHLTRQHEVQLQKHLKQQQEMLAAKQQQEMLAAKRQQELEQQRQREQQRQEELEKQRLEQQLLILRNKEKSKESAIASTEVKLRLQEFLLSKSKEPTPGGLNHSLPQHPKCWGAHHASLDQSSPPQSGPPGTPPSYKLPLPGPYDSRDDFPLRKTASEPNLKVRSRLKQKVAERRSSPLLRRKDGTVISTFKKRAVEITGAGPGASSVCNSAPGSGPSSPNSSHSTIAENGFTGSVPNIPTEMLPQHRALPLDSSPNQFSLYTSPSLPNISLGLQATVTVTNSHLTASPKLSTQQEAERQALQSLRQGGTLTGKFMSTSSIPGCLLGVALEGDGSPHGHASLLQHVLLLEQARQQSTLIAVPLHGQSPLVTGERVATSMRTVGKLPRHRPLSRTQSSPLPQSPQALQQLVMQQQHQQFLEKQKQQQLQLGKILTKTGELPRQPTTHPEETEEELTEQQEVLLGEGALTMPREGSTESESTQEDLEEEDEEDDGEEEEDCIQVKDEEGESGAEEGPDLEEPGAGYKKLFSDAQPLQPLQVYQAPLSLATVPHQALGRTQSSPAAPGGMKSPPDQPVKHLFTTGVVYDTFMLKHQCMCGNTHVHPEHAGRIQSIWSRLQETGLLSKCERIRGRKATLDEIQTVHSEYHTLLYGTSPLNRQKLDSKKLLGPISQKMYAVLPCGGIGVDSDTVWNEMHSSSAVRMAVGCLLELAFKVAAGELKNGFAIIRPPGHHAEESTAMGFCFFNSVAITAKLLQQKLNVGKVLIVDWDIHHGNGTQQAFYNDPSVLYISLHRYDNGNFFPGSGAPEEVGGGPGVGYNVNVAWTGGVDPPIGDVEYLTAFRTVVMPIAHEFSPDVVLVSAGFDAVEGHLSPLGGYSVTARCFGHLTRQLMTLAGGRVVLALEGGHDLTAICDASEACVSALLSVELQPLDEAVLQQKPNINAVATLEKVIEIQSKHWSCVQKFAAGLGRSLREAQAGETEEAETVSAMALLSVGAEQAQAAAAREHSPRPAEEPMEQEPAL
Histone deacetylase 2, sequence (Q92769 whole entry): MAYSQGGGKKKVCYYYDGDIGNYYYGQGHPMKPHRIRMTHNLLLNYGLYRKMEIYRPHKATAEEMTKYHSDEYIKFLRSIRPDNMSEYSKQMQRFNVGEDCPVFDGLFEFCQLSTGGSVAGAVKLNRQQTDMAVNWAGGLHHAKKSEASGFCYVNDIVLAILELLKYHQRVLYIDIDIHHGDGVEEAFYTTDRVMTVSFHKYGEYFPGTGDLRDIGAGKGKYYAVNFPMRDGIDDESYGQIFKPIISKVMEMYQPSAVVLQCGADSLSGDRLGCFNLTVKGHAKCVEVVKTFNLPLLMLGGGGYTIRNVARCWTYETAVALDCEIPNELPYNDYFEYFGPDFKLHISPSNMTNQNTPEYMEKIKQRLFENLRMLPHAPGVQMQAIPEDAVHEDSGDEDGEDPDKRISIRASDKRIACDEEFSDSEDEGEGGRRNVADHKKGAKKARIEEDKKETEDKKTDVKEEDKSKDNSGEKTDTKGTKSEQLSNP
Histone deacetylase 1, sequence (Q13547 whole entry): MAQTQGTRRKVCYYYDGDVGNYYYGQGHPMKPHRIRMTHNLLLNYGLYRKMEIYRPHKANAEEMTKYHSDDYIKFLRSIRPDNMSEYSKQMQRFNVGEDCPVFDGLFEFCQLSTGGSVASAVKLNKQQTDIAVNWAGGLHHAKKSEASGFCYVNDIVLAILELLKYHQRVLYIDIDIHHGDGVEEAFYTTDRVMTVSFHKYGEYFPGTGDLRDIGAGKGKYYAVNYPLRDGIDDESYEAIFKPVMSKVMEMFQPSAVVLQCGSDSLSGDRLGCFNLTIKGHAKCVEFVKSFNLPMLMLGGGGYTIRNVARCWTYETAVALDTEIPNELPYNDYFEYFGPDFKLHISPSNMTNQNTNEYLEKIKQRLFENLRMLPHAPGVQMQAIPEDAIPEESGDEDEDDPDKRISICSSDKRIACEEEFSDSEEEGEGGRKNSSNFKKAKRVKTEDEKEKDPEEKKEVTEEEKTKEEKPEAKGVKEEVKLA

IC50 (Histone deacetylase 1): 3.01 nM
IC50 (Histone deacetylase 3 [1]): 0.44 nM
IC50 (Histone deacetylase 2): 18.5 nM
Cmax [2]: 38800 ng/mL
half-life [3]: 6.75 h
half-life [4]: 2.58 h
F [5]: 112%
IC50 (Histone deacetylase 5): > 5000 nM
IC50 (Histone deacetylase 7): > 5000 nM
IC50 (Histone deacetylase 11): > 5000 nM
Drug uptake [11]: Active
IC50 (Histone deacetylase 3 [12]): 0.56 nM
Drug uptake [13]: Active
Drug uptake [14]: Active
Drug uptake [15]: Active
Drug uptake [16]: Active
Drug uptake [17]: Active
Structure (SMILES): CCCNNC(=O)c1ccc(CNC(=O)c2cc3ccccc3[nH]2)cc1
Activity (MV4-11 [6]): 71.2%
Activity (MV4-11 [7]): 88.1%
Activity (MV4-11 [8]): Active
Activity (HL-60): Active
TGI [9]: 78.9%
Activity (MV4-11 [10]): Active
Activity [18]: Non-Toxic
Activity [19]: Non-Toxic

IC50 (Histone deacetylase 5): > 5000 nM
IC50 (Histone deacetylase 7): > 5000 nM
IC50 (Histone deacetylase 11): > 5000 nM
Structure (SMILES): CCCNNC(=O)c1ccc(CNC(=O)/C=C/c2ccccc2)cc1
